# Assay results: ChEMBL document CHEMBL3507680, “University of Dundee, Gates Library screen for HepG2 cell viability”
# Test: Human HepG2 cell viability assay in 384 well format
# Assay type: toxicity, cell-based
# Design: dose 125 nL, time 70.5 hour; cytotoxicity at 70.5 h: concentration not given beside the values
# Settings: HepG2 cells, read-out: Inhibition
row,SMILES,cytotoxicity at 70.5 h
1,O=C(NC1CCNC1)C1(N2CCCCC2)Cc2ccccc2C1 (stereo unspecified),1.09%
2,CN1CCC(n2nc(CC3CC3)nc2-c2ccc(F)cc2Cl)CC1,-7.5%
3,COC[C@@]12CC[C@@H](N3CCOCC3)C[C@H]1CCN(c1cnccn1)C2,13.9%
4,Cc1ccc(-c2cn(C3CCN(C(=O)[C@H]4CCCO4)CC3)nn2)cc1,-5.5%
5,COCCCN1CCN(c2ncnc3nc(C)cc(C)c23)CC1,-4.17%
6,CCNc1ncc(CN(CCN(C)C)Cc2ccc(C)s2)cn1,-7.34%
7,CCCN1CCC(N2CCC(Cn3cc(CC(C)O)nn3)CC2)CC1 (stereo unspecified),-6.23%
8,CC(C)(O)CCc1ccc(C(=O)N2Cc3cnn(CCO)c3C2)cc1,-11.3%
9,CCCc1ncc(CN(C)C2CCCN(CCc3ccccc3)C2)cn1 (stereo unspecified),-4.41%
10,CN(C)[C@@H]1C[C@@H](CO)N(C(=O)Nc2cccc(F)c2F)C1,19.1%
11,Cc1nc2c(c(NCC(O)c3ccccc3Cl)n1)CCNCC2 (stereo unspecified),-11.8%
12,Oc1cccc2ccc(CN3CCC4(CCNCC4)C3)nc12,-4.99%
13,C=C(C)COc1cccc(C(=O)N(CC)Cc2nccn2C)c1,2.21%
14,CN(C)CCn1ccnc1C1CCCN(C(=O)CCc2cccnc2)C1 (stereo unspecified),-4.26%
15,Cc1cccnc1NCCNC(=O)c1cnc(-c2cccs2)nc1O,-0.575%
16,COc1cccc(N2CCN(Cc3cc(C)cc(F)c3)CC2=O)c1,-3.94%
17,CC[C@H](CO)NC(=O)c1coc(COc2cccc(F)c2F)n1,9.55%
18,O=C1CC(NCc2cnc(C3CCCCC3)nc2)CN1c1ccccc1 (stereo unspecified),13.8%
19,Cn1cc(CN2CCCC(CCc3ccccc3C(F)(F)F)C2)cn1 (stereo unspecified),-1.24%

row,SMILES,cytotoxicity at 70.5 h
1,Cc1ncnc(NC(CC(C)(C)C)c2cccnc2)c1C (stereo unspecified),-2.93%
2,COc1ccc(CN(C)C2CCN(C(=O)C(C)C)CC2)c2cccnc12,-10.3%
3,COC(=O)c1ccc2ccn(CC3CCCN(C)C3)c(=O)c2c1 (stereo unspecified),25.4%
4,CC(C)c1cc(NCC2(CO)CCC2)ncn1,17.4%
5,CCOCCn1nc(C)cc1C(=O)N(C)Cc1cccc2ncccc12,20.2%
6,Cc1nsc(NC(=O)NC2CCOCC2)n1,13.1%
7,CCN1CCN(C(=O)c2cc(-c3cccn3C)n[nH]2)[C@H]2CS(=O)(=O)C[C@H]21,-18.3%
8,Cc1ccc(-c2cnnc(NCC3CCOCC3)n2)o1,28.5%
9,Cc1nn(C)c2nc(N(Cc3nccs3)C3CC3)sc12,-15.9%
10,Cn1c(C(N)=O)cc2c1CN(C(=O)C1CCCN(C3CCCC3)C1)CC2 (stereo unspecified),-7.9%
11,CN(Cc1nncn1C)C(=O)c1cc(COc2ccccc2)[nH]n1,-5.51%
12,CCC(=O)N1CCN(Cc2cnc(C)nc2)[C@H]2CS(=O)(=O)C[C@H]21,12.9%
13,CCCc1cncnc1N1CCC(NCCc2ccc(O)cc2)CC1,-6.17%
14,Cc1cc(C(=O)N[C@H]2CN(CCO)C[C@@H]2C2CC2)sc1C,-3.28%
15,CN1CCCC(CCC(=O)N2CCc3c(nc(CC4CC4)[nH]c3=O)C2)C1 (stereo unspecified),-4.3%
16,Nc1cc(-c2ccc(C(=O)O)cc2O)c2cc[nH]c2n1,4.2%
17,CCC(=O)Nc1cc(Cl)ccc1C(=O)N(C)Cc1noc(CC)n1,-5.2%
18,Cc1cnccc1CNCc1ccc(OC23CCCN(CC2)C3)cc1 (stereo unspecified),-6.06%
19,CN1CCCCC1CCC(=O)NCCCn1nccc1C1CC1 (stereo unspecified),-11.4%

row,SMILES,cytotoxicity at 70.5 h
1,CC(C)n1cc(C(=O)NCCc2cn3ccsc3n2)cn1,13.8%
2,CNC(=O)[C@@H]1C[C@@H](N)CN1C1CCN(Cc2ccccn2)CC1,20.3%
3,Cc1ccc(N2CCC3(CCC(=O)N3Cc3ccncc3)CC2)nn1,0.778%
4,O=C(c1ccco1)N1CC[C@@H]2CN(C3CCOCC3)CCO[C@@H]2C1,0.698%
5,CC1c2ncc(Cn3cccn3)n2CCN1c1ncccn1 (stereo unspecified),-8.84%
6,CN(C)c1nc(N2CCCC2)nc2c1CCN(Cc1nccn1C)CC2,8.52%
7,CCCN1CCC(c2nc3ccc(-c4ccccc4)cn3n2)CC1,-10.7%
8,O=C(C1CCOC1)N1C[C@H]2CN(Cc3ccncc3)C(=O)[C@H]2C1 (stereo partly specified),-9.99%
9,CCN(C)c1ncnc2c1CCN(S(=O)(=O)c1ccccc1)CC2,-5.89%
10,CC(=O)N1CCC(c2nc3ccc(NC4CCC4)cn3n2)CC1,-5.56%
11,Cc1ccc(CS(=O)(=O)N2Cc3c(CN(C)C)nn(C)c3C2)cc1,-4.61%
12,O=c1cc(CNS(=O)(=O)C2CC2)nc2n1CCCN(CC1CC1)C2,-5.1%
13,CN(C)CCN1C[C@@H]2CN(c3ccccc3)C[C@@H]2C1=O,23.6%
14,CN1C[C@H]2N(c3ncccn3)CCC[C@@]2(C(=O)NCC2CC2)C1,-6.84%
15,O=C(NCc1cccnc1)N1CCc2ncnc(NC3CC3)c2CC1,11.7%
16,CCCN1CCC(c2nc3ccc(-c4ccncc4)cn3n2)CC1,19.7%
17,Cc1noc(C)c1CN1CCc2ncnc(-c3cccnc3)c2CC1,-0.64%
18,O=C(C1CCCO1)N1CCC2(CC1)COCCN(Cc1cccnc1)C2 (stereo unspecified),-2.16%
